Data on one compound can be found in article PMC9611166, “Cocrystal Prediction of Bexarotene by Graph Convolution Network and Bioavailability Improvement” (Pharmaceutics, 2022).

Data set [1] can be described thus: Powder dissolution at pH 6.8 with 0.05% CTAB. The format is physicochemical. On the procedure: (§1) The concentration of BEX samples was detected by the Agilent 1260 Series Infinite HPLC. The Eclipse XDB-C18 column (4.6 × 150 mm, 5 μm) was used to separate the analytes. The column temperature was set at 30 °C and the injection volume was 10 μL. The mobile phase was composed of 0.1% trifluoroacetic acid in water and acetonitrile (10:90, v/v) pumped at 1.0 mL/min. The 260 nm was set as the UV-vis detection wavelength.
The solid samples of BEX and four cocrystals were sieved through 100-mesh sieves. In total, 20 mg of BEX and corresponding cocrystal powders (n = 3) were added to pH 6.8 phosphate buffer with the presence of 0.05% CTAB at 37 °C, rotating at 100 rpm. The samples were collected at 5, 10, 15, 20, 30, 40, 50, and 60 min. The concentration was measured by HPLC.

A short description of data set [2]: Equilibrium solubility in buffer solutions with 0.05% CTAB. The format is physicochemical. The following applies: for solubility thermodynamic at 1 day: buffer solution with 0.05% CTAB, aqueous with cosolvent or surfactant or cyclodextrin, thermodynamic from solid, 0.05% CTAB, 37 °C, one day. As for the experimental part: as §1
Excess amounts (10 mg) of BEX and four cocrystals samples were added to the 4 mL of pH 2.0, 4.5, and 6.8 buffer solutions respectively, with the presence of 0.05% CTAB (hexadecyl trimethyl ammonium bromide). Then the saturated solutions were stirred at 300 rpm for one day at 37 °C. The equilibrium solubility of BEX was determined by HPLC after filtering the solutions.

On the set-up of data set [3]: method as in PMID 24333772. Particulars: cited from earlier work.
Data set [4] can be described thus: Pharmacokinetics in rats. It counts as in vivo. Particulars: male, Sprague-Dawley, rat, plasma, po, 10 mg/kg BEX, 0.5% CMC-Na suspension, mean ± SD. As for the experimental part: The PK studies were performed according to the Guide for Care and Use of Laboratory Animals and were approved by the Institutional Animal Care and Use Committee of Shanghai Institute of Materia Medica. There were two groups of male Sprague−Dawley rats and the number of rats is six in each group. […] The dose is 10 mg/kg BEX. The animals had free access to water and fasted overnight before dosing. After the administration, the 600 μL blood sample was collected at 0.5, 1, 2, 3, 4, 6, and 8 h. Plasma was separated by centrifugation (14,000 rpm, 10 min) and stored at −80 °C. In total, 200 μL of rat plasma sample was mixed with 600 μL acetonitrile through a vortex mixer for 20 min and centrifuged for 5 min (14,000 rpm). The BEX concentration was measured by the SCIEX Triple Quad™ 4500 LC-MS instrument. The analytes were separated by the Supelco Ascentis Express C18 column (2.1 × 50 mm, 2.7 μm). The column temperature was set at 35 °C. The mobile phase was composed of 0.2% formic acid in water (solvent A) and acetonitrile (solvent B) pumped at 0.6 mL/min. The gradient elution program started with 55% B and increased linearly to 90% B at 1.5 min and held for 0.5 min. It returned to the 55% B at the 3 min and held for 2 min. The injection volume was 10 μL, and the UV-vis detection wavelength was set at 260 nm. The negative ion detection mode was operated in the mass spectrometer. Multiple reaction monitoring modes (MRM) was used to perform the detection and quantification, with m/z 347.3→303.0 for BEX. The DAS 2.0 program was used to perform the PK analysis.

In brackets after ≈: the same amount, converted by molar mass.

As a reminder, the solubility is the concentration that dissolves in the medium under given conditions. By solubility (thermodynamic) is commonly meant solubility found after equilibrating the solid with the medium. As a reminder, the AUC(0-inf) is total exposure, with the tail of the curve extrapolated. The low end stands for low exposure, the high end for high exposure. The term Cmax denotes the highest concentration seen after dosing. As usually defined, the half-life is the time in which the quantity being followed falls by half. Read a low half-life as rapid decline. In the case of `C=C(c1ccc(C(=O)O)cc1)c1cc2c(cc1C)C(C)(C)CCC2(C)C` [BEX, Bexarotene], the “pH value of solution after powder dissolution” value in data set [1] (pH 6.8, n = 3) worked out at 6.81 ± 0.01. Besides, the solubility at 60 min in data set [1] (phosphate buffer with 0.05% CTAB, aqueous with cosolvent or surfactant or cyclodextrin, thermodynamic from solid, pH 6.8 phosphate buffer, 0.05% CTAB, 37 °C, 60 min, read-out: measured solubility in powder dissolution after 60 min) is roughly 30 µg/mL (≈ 86.1 µM). The thermodynamic solubility at 1 day in data set [2] (pH 2.0 buffer) was less than 10 µg/mL; in data set [2] (pH 4.5 buffer), greater than 10 µg/mL; in data set [2] (pH 6.8 buffer), roughly 30 µg/mL (≈ 86.1 µM). Further, the “pH value of solution after equilibrium solubility experiment” value in data set [2] (starting buffer pH 2.00, n = 3) is 2.06 ± 0.01; in data set [2] (starting buffer pH 4.50, n = 3) it was 4.58 ± 0.01; in data set [2] (starting buffer pH 6.80, n = 3), 6.82 ± 0.02. In data set [3], the absolute bioavailability result was “less than 20%”. The same compound registered an AUC(0-inf) in data set [4] of 8790 ± 1080 ng·h/mL. Also, the highest level in data set [4] (Cmax) was 1680 ± 559 ng/mL. The same compound showed a half-life in data set [4] of 2.98 ± 1.18 h. Besides, in data set [4] (read-out: AUC0−8h), the AUC(0-t) turned out to be 7220 ± 811 ng·h/mL.
